Measured values as given in ChEMBL document CHEMBL6121021, “Design and Synthesis of Topoisomerases-Histone Deacetylase Dual Targeted Quinoline-Bridged Hydroxamates as Anticancer Agents” (J Med Chem, 2025).

Assays:
Histone deacetylase 3 = Histone deacetylase 3 (Homo sapiens, UniProt O15379); experiment: Inhibition of HDAC3 (unknown origin)
Histone deacetylase 11 = Histone deacetylase 11 (Homo sapiens, UniProt Q96DB2); experiment: Inhibition of HDAC11 (unknown origin)
[1] = molecular target: Polyamine deacetylase HDAC10 (Homo sapiens, UniProt Q969S8); experiment: Inhibition of HDAC10 (unknown origin)
Histone deacetylase 1 = Histone deacetylase 1 (Homo sapiens, UniProt Q13547); experiment: Inhibition of HDAC1 (unknown origin)
Histone deacetylase 8 = molecular target: T1, Histone deacetylase 8 (Homo sapiens, UniProt Q9BY41); experiment: Inhibition of HDAC8 (unknown origin)
T1 sequence (Q9BY41 whole entry): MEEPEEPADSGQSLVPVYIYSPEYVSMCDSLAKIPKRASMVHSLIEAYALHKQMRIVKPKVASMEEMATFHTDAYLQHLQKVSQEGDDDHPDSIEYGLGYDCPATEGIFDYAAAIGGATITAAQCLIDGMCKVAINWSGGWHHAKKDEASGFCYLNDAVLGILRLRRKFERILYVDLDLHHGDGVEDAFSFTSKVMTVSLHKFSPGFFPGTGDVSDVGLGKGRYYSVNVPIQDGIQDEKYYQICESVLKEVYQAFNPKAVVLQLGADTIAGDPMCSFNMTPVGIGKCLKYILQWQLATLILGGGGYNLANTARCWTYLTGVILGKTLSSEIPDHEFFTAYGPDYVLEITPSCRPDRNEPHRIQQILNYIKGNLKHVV

Histone deacetylase 4 = Histone deacetylase 4 (Homo sapiens, UniProt P56524); experiment: Inhibition of HDAC4 (unknown origin)
[2] = molecular target: T2, Protein deacetylase HDAC6 (Homo sapiens, UniProt Q9UBN7); experiment: Inhibition of HDAC6 (unknown origin)
T2 sequence (Q9UBN7 whole entry): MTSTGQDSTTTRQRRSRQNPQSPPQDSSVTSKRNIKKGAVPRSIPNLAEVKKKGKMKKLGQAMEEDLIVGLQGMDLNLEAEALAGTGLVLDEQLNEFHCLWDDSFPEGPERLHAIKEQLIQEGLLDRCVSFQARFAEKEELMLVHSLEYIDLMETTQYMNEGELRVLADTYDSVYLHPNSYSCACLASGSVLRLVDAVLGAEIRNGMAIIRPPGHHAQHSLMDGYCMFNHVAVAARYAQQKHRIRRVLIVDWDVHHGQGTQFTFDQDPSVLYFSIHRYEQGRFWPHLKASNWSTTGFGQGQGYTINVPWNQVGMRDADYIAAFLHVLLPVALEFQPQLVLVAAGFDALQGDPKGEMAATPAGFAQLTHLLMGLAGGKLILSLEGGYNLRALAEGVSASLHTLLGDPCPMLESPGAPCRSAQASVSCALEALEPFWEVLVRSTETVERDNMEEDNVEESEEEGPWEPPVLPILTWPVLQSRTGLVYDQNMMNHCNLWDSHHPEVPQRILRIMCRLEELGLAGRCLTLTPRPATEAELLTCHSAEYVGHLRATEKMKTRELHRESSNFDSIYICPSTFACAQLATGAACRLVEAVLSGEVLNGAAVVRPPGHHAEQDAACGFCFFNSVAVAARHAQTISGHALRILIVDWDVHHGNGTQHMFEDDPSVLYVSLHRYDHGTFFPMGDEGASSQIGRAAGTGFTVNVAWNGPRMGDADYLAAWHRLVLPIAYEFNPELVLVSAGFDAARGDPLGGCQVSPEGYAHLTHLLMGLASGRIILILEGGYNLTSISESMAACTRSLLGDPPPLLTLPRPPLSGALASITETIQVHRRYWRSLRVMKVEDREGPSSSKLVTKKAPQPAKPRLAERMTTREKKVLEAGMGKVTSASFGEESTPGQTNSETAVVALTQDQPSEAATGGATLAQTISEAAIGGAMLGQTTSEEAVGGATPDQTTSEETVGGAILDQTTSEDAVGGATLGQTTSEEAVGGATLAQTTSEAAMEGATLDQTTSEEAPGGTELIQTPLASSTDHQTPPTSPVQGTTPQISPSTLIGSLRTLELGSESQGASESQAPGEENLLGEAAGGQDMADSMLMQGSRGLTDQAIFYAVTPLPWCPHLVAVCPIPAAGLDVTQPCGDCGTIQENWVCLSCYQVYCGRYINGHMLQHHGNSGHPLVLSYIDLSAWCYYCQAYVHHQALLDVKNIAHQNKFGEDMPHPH

Histone deacetylase 2 = Histone deacetylase 2 (Homo sapiens, UniProt Q92769); experiment: Inhibition of HDAC2 (unknown origin)
Histone deacetylase 2, sequence (Q92769 whole entry): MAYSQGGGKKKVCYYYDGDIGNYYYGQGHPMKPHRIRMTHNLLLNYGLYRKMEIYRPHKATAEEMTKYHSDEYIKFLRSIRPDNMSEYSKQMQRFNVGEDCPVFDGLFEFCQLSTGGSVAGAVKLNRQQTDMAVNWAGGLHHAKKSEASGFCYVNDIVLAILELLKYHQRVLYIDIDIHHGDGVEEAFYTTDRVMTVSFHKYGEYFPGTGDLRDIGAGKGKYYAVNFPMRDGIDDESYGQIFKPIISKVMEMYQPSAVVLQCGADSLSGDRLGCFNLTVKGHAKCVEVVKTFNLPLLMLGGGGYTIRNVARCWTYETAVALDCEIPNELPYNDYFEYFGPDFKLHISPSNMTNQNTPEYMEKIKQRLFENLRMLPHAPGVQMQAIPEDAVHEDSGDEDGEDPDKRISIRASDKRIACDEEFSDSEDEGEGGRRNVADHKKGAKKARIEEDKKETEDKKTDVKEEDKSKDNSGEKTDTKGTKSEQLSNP

Histone deacetylase 3, sequence (O15379 whole entry): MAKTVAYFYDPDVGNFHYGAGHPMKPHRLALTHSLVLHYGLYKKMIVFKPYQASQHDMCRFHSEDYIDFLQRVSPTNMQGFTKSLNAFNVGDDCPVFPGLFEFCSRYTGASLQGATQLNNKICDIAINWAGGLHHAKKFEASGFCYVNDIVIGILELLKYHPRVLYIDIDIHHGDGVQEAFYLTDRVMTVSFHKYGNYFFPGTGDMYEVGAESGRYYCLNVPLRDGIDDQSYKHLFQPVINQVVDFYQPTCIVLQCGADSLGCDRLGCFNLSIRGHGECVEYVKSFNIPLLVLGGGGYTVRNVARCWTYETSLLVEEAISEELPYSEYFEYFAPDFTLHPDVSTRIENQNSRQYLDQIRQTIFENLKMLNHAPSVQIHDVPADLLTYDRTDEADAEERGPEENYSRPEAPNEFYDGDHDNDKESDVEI
Histone deacetylase 4, sequence (P56524 whole entry): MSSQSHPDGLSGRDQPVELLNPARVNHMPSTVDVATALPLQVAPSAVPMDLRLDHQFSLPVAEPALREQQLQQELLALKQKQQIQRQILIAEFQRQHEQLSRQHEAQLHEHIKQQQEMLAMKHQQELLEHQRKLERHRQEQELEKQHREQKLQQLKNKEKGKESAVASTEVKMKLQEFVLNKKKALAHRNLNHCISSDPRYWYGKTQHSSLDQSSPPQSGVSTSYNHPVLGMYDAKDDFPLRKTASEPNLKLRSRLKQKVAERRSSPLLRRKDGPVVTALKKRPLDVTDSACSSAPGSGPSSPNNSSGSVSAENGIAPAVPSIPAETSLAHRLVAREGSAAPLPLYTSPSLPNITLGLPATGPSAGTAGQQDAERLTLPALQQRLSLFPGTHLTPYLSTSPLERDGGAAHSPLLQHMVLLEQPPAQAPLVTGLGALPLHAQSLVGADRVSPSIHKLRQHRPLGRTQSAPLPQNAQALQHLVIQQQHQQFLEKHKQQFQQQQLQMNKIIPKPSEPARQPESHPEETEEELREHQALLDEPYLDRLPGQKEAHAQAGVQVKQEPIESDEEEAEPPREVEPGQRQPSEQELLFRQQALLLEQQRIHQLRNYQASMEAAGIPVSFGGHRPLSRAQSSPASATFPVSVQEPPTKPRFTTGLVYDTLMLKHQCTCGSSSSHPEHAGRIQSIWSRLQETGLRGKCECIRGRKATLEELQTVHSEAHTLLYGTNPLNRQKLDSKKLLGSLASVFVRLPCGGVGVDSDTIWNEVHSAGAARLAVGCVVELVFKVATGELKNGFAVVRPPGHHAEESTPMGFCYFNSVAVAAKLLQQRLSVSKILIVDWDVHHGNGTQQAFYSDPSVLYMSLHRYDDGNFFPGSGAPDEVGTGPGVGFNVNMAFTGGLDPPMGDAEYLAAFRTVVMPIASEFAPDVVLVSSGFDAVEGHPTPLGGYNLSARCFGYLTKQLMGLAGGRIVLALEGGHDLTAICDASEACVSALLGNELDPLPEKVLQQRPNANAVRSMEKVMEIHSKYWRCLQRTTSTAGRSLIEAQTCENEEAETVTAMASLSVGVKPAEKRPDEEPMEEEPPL
Histone deacetylase 1, sequence (Q13547 whole entry): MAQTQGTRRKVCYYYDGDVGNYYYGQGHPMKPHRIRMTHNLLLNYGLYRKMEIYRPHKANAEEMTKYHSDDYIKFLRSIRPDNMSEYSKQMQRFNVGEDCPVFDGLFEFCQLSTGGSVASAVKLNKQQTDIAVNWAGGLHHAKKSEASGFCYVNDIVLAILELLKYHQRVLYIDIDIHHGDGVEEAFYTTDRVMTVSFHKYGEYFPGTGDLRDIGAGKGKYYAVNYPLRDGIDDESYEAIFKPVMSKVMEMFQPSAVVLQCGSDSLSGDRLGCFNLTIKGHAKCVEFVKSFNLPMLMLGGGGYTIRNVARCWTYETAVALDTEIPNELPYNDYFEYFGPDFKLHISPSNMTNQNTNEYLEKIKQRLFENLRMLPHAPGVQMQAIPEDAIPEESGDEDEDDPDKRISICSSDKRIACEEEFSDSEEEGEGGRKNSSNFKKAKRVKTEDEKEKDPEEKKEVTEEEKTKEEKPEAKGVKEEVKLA
Histone deacetylase 11, sequence (Q96DB2 whole entry): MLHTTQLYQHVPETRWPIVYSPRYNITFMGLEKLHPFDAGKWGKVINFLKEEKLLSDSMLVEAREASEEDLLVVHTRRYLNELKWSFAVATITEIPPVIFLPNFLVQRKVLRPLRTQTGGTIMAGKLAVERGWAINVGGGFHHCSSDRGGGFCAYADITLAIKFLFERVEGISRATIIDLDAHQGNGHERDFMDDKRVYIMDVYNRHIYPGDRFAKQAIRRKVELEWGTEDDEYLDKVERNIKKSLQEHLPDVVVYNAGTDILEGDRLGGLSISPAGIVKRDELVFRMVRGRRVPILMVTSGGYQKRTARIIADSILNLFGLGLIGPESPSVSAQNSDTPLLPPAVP
Polyamine deacetylase HDAC10, sequence (Q969S8 whole entry): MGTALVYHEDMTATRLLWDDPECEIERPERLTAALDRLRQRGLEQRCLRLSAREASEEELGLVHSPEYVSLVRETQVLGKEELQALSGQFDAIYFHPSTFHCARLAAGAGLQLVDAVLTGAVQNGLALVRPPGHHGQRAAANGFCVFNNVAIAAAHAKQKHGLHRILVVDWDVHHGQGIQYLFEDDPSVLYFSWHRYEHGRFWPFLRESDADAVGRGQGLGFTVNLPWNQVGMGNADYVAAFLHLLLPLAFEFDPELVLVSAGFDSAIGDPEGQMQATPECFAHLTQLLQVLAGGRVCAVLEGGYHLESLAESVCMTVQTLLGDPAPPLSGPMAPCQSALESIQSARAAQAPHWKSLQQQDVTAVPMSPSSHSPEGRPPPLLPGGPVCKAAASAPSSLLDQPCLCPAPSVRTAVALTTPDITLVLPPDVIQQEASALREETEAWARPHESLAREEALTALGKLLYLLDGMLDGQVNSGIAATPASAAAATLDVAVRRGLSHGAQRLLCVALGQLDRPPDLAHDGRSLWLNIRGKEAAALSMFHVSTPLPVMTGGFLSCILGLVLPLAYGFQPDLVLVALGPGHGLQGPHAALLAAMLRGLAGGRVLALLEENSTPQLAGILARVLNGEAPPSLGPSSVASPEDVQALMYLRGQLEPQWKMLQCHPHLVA

- IC50 (Histone deacetylase 3): 27 nM
- IC50 (Histone deacetylase 11): > 100 nM
- IC50 [1]: 5.5 nM
- IC50 (Histone deacetylase 1): 0.16 nM
- IC50 (Histone deacetylase 8): > 100 nM
- IC50 (Histone deacetylase 4): > 100 nM
- IC50 [2]: > 100 nM
- IC50 (Histone deacetylase 2): 10 nM
SMILES: CN1c2ccccc2C(=O)N2[C@H](C(=O)Nc3ccc(C(=O)Nc4ccccc4N)cc3)Cc3c([nH]c4ccccc34)[C@@H]12
